{"source": "paper PMC8348686", "about": "“The Pharmacological Profile of Second Generation Pyrovalerone Cathinones and Related Cathinone Derivative” (International Journal of Molecular Sciences, 2021)", "origin": "cited, not measured here", "key": {"[1]": {"molecular_target": "T1, h5-HT2C receptor (Homo sapiens, UniProt P28335)", "T1 construct": "expressed in transfected cells; host or cells: HEK293 cell preparations", "T1 sequence (P28335 33-458)": "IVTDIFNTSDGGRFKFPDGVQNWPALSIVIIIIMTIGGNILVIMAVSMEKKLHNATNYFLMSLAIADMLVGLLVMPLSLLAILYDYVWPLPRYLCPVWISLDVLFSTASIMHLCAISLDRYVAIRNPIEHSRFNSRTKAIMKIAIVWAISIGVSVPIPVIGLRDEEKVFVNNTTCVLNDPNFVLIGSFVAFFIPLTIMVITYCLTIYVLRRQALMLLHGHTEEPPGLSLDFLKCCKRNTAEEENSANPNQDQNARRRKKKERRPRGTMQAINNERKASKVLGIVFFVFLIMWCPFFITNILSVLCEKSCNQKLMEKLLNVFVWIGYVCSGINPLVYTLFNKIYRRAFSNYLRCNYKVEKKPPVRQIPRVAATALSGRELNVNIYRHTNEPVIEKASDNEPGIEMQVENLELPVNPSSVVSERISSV", "details": "read-out: h5-HT2C Receptor Binding Ki ± SD; [3H]-Mesulgerine; ref Simmler et al. (2013); cited from earlier work"}, "[2]": {"molecular_target": "h5-HT2A receptor (Homo sapiens, UniProt P28223)", "sequence (P28223 whole entry)": "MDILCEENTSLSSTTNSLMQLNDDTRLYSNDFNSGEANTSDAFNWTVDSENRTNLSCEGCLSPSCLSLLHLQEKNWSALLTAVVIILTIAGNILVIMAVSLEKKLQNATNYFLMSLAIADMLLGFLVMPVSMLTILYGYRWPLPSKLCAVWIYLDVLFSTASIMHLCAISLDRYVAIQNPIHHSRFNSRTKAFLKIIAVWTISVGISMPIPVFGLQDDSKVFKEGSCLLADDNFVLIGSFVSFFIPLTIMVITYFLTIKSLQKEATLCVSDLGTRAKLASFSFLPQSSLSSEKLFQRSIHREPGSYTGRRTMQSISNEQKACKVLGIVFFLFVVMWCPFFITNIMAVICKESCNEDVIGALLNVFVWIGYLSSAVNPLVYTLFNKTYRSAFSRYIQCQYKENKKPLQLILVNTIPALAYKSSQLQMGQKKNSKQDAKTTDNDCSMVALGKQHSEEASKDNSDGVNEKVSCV", "set-up": "expressed in transfected cells; host or cells: HEK293 cell preparations", "details": "read-out: h5-HT2A Receptor Binding Ki ± SD; [3H]-Ketanserin; ref Simmler et al. (2013); cited from earlier work"}, "[3]": {"molecular_target": "dopaminergic D2 receptor (Homo sapiens, UniProt P14416)", "sequence (P14416 whole entry)": "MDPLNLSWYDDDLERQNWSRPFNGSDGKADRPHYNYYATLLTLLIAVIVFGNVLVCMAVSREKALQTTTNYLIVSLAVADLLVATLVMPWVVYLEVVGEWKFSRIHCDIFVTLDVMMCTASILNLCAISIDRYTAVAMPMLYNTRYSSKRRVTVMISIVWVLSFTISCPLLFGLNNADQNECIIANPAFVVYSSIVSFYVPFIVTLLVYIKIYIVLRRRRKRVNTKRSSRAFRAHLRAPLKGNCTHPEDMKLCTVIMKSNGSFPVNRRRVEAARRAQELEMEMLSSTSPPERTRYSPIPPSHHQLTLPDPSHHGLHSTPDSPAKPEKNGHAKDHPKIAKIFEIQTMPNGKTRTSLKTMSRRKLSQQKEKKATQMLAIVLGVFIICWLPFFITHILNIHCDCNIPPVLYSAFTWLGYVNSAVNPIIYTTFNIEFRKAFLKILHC", "details": "read-out: D2 Receptor Binding Ki ± SD; [3H]-Spiperone; ref Simmler et al. (2013); cited from earlier work"}, "[4]": {"molecular_target": "T2, adrenergic α2A receptor (Homo sapiens, UniProt P08913)", "T2 sequence (P08913 1-465)": "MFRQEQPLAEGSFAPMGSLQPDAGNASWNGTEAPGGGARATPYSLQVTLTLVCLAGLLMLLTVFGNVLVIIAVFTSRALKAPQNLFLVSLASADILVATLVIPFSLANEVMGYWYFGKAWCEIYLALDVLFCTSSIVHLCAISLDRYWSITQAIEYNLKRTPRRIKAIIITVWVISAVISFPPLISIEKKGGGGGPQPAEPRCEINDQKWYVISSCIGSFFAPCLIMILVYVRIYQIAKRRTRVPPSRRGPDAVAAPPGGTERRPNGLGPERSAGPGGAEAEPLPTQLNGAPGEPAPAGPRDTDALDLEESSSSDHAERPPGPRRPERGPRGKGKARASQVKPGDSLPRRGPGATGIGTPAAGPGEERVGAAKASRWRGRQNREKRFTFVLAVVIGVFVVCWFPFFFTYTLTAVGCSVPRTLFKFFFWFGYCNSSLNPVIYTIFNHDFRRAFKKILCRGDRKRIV", "details": "read-out: α2A Receptor Binding Ki ± SD; [3H]-Rauwolscine; ref Simmler et al. (2013); cited from earlier work"}, "[5]": {"tested_on": "Human TAAR1", "set-up": "method as in Simmler et al. (2016)", "details": "ref Simmler et al. (2016); read-out: Human TAAR1 Activation Potency EC50 ± SD; cited from earlier work"}, "[6]": {"molecular_target": "Mouse TAAR1", "details": "[3H]-RO5166017; ref Simmler et al. (2013); read-out: Mouse TAAR1 Receptor Binding Ki ± SD; cited from earlier work"}, "[7]": {"molecular_target": "Rat TAAR1", "details": "[3H]-RO5166017; ref Simmler et al. (2013); read-out: Rat TAAR1 Receptor Binding Ki ± SD; cited from earlier work"}, "[8]": {"molecular_target": "T3, adrenergic α1A receptor (Homo sapiens, UniProt P35348)", "T3 sequence (P35348 1-466)": "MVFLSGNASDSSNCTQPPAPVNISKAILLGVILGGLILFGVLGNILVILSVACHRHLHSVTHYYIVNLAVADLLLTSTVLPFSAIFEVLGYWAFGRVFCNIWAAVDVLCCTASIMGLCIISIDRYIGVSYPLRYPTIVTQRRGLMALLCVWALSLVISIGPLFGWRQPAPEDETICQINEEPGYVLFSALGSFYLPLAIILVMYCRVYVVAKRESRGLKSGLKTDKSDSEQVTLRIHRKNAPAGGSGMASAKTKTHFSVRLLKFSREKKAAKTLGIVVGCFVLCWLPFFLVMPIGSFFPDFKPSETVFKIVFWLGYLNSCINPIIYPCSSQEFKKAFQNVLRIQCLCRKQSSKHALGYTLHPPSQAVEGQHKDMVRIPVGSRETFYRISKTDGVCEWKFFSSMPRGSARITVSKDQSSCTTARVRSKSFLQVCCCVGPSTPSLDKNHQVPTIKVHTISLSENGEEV", "details": "read-out: α1A Receptor Binding Ki ± SD; [3H]-Prazosin; ref Simmler et al. (2013); cited from earlier work"}, "[9]": {"molecular_target": "T4, h5-HT2B receptor (Homo sapiens, UniProt P41595)", "T4 construct": "expressed in transfected cells; host or cells: HEK293", "T4 sequence (P41595 whole entry)": "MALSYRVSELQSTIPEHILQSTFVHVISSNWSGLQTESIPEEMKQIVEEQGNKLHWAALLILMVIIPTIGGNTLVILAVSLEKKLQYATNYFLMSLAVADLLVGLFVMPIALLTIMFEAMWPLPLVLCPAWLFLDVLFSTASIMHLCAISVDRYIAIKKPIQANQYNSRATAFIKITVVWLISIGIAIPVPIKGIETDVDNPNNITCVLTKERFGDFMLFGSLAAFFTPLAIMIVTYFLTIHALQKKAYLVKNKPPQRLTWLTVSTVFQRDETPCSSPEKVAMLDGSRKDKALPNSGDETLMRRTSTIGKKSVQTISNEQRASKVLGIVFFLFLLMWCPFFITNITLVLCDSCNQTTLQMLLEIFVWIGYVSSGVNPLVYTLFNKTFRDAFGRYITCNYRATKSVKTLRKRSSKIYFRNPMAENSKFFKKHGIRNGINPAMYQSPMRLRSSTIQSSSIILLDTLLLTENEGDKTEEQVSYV", "set-up": "method as in Rickli et al. (2015)", "details": "read-out: h5-HT2B Activation Potency EC50 ± SD; ref Rickli et al. (2015); cited from earlier work"}}}
{"smiles": "CC(N)Cc1ccccc1", "note": "(stereo not drawn) [Amphetamine, amphetamine, reference compound]", "values": [{"measurement": "Ki", "setting": "[1]", "result": "> 13", "unit": "µM"}, {"measurement": "Ki", "setting": "[2]", "result": "> 13", "unit": "µM"}, {"measurement": "Ki", "setting": "[3]", "result": "> 30", "unit": "µM"}, {"measurement": "Ki", "setting": "[4]", "result": "2.8 ± 0.8", "unit": "µM"}, {"measurement": "EC50", "setting": "[5]", "result": "2.8 ± 0.8", "unit": "µM"}, {"measurement": "Ki", "setting": "[6]", "result": "0.09 ± 0.06", "unit": "µM"}, {"measurement": "Ki", "setting": "[7]", "result": "0.23 ± 0.18", "unit": "µM"}, {"measurement": "Ki", "setting": "[8]", "result": "> 6", "unit": "µM"}, {"measurement": "EC50", "setting": "[9]", "result": "9.4 ± 1.6", "unit": "µM"}]}
